We go through nine compounds from PubChem BioAssay AID2060609 (Molecular Pharmacology Branch, DTP, NCI, 2025).

The test system of this test is 855422-203-R-J1-PDC complex spheroids, viability. The experiment in a line: Anticancer human tumor 855422-203-R-J1-PDC patient-derived bladder carcinoma cell line growth inhibition [CLK]. The conditions noted are these: for viability, T/C: stronger effect = lower value; for IC50: curve of compound. From the text: A high-throughput screen of multi-cell type tumor spheroids was designed to identify active combinations of […] and targeted small molecules. Complex spheroids include a stromal component modeled by human endothelial cells (HUVEC) and fibroblasts modeled by human mesenchymal stem cells (MSCs). The concentration ranges selected for each drug and investigational agent were based upon clinically achievable concentrations if the clinical Cmax of the agent was known.
Compounds. The drugs and investigational agents: cirtuvivint (SM08502; NSC835563), CC-671 (NSC850746), vemurafenib (NSC761431), tapotoclax (NSC804041), sotorasib (NSC818433), adagrasib (NSC831453), MRTX-1133 (NSC836407), BAY2416964 (NSC825713), copanlisib (NSC816437), inavolisib (NSC800729), abemaciclib (NSC768073), osimertinib (NSC779217), entinostat (NSC756642), eltanexor (KPT-8602, NSC794443), venetoclax (NSC766270), ceralasertib (NSC777638), bortezomib (NSC756655), olaparib (NSC753686), talazoparib (NSC767125), alisertib (NSC759677), peposertib (NSC802822), gemcitabine (NSC613327), 5-fluorouracil (NSC19893), SN-38 (NSC673596), oxaliplatin (NSC266046), paclitaxel (NSC125973), and doxorubicin (NSC123127), were obtained from the National Cancer Institute (NCI) Developmental Therapeutics Program Chemical Repository. The FDA-approved anticancer drug set is available from the Developmental Therapeutics Program at https://dtp.cancer.gov/organization/dscb/obtaining/available plates.htm. […] The stock solutions were prepared in dimethyl sulfoxide (DMSO, Sigma-Aldrich, St. Louis, MO, cat. D2650), except for the platinum complexes which were prepared in saline (Quality Biological, Gaithersburg, MD, cat. 114-055-101), at 800-fold the tested concentration and stored at -70 degrees C prior to their use. All drugs and investigational agents were tested over a range starting from a high concentration at or near the clinical Cmax and decreasing in half-log increments. If the clinical Cmax for an agent had not been determined, the highest concentration tested was 10 microM.
Cell Culture. All cells were maintained in an incubator at 37 degrees C and 5% CO2 with 95% humidity. The PDC lines were cultured according to standard operating procedures established by the NCI PDMR. Briefly, all PDCs were thawed and cultured in Matrigel-coated flasks prepared with a working solution of 1X Ham's F-12 nutrient mix, without supplementation (Invitrogen, Waltham, MA, cat. 11765054), 100 U/mL penicillin-streptomycin (Invitrogen, cat. 15140122), and 2.5% Matrigel (Corning Inc., Corning, NY, cat. 354248) for the first three passages. The 947758-054-R-J2-PDC line was cultured in 6B/Colon 1A media, which includes advanced DMEM/F-12 (Thermo Fisher Scientific, cat. 12634028), 10 mM HEPES (Thermo Fisher Scientific, cat. 15630080), 1X GlutaMAX supplement (Thermo Fisher Scientific, cat. 35050061), 0.1 mg/mL primocin (InvivoGen, cat. ant-pm-2), 10% defined fetal bovine serum, heat inactivated (HyClone Laboratories Inc., cat. SH30070.03HI), 1.25 mM N-Acetyl-L-cysteine (Sigma-Aldrich, cat. A9165), 10 mM nicotinamide (Sigma-Aldrich, cat. N0636), 1X B-27 supplement (Thermo Fisher Scientific, cat. 17504044), 1X N-2 supplement (Thermo Fisher Scientific, cat. 17502048), and 10 microM Y-27632 dihydrochloride (Tocris Bioscience, cat. 1254). The 876862-298-R-J1-PDC was cultured in 6E media, which includes all 6B/Colon 1A media components plus 50% L-WRN conditioned media (ATCC, cat. CRL-3276), 50 ng/mL recombinant human EGF recombinant protein (hEGF; Thermo Fisher Scientific, cat. PHG0311), 10 ng/mL recombinant human fibroblast growth factor 10 (hGFG-10; PeproTech, cat. 100-26), 1 ng/mL recombinant human fibroblast growth factor 2 (hFGF-2; PeproTech, cat. 100-18B), and 1 µM prostaglandin E2 (PGE2; Tocris, cat. 2296). The 227483-062-R1-J1-PDC line was cultured in Panc media, containing all 6E components except hFGF-2, with the addition of 500 nM SB-431542 (Selleckchem, cat. S1067) and 10 nM gastrin (Tocris, cat. 3006). […]

Where “and” joins values, the source holds several entries; their conditions need not be identical. Equal values may be shown once.
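Further: spheroids exposed to drugs for seven days before readout.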
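Wherever viability, T/C is given: 100% = DMSO vehicle control wells.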

One may read the viability, T/C as the ratio of treated to control. Broadly, the IC50 is the concentration that gives 50% inhibition. With `CC1COCCN1c1cc(C2(S(C)(=N)=O)CC2)nc(-c2ccnc3[nH]ccc23)n1` (stereo not drawn), the half-inhibitory concentration (IC50) is 2260 nM and 2160 nM. Besides, the viability, T/C (compound 0.0316 µM) is 127% and 114%. Moreover, where the note is “compound 0.1 µM”, the viability, T/C was 108% and 101%. Further, where the note is “compound 0.316 µM”, the viability, T/C is 115% and 113%. Moreover, the viability, T/C (compound 1 µM) is 93.2% and 103%. In addition, the viability, T/C (compound 3.16 µM) was 32.1% and 23.6%. Moreover, the viability, T/C (compound 10 µM) is 11.2% and 8.31%.

For `CCCS(=O)(=O)Nc1ccc(F)c(C(=O)c2c[nH]c3ncc(-c4ccc(Cl)cc4)cc23)c1F`, the IC50 is 5930 nM and 6040 nM. In addition, the viability, T/C (compound 0.0316 µM) was 101% and 114%. For the setting “compound 0.1 µM”, the viability, T/C was 98.5% and 97.8%. Moreover, the viability, T/C (compound 0.316 µM) was 112% and 118%. The viability, T/C (compound 1 µM) is 107% and 111%. Also, for the setting “compound 3.16 µM”, the viability, T/C was 109% and 119%. In addition, the viability, T/C (compound 10 µM) was 3.67% and 1.89%.

Regarding `CCN1CCN(Cc2ccc(Nc3ncc(F)c(-c4cc(F)c5nc(C)n(C(C)C)c5c4)n3)nc2)CC1`, the IC50 was > 1000 nM and 778 nM. For the same compound, the viability, T/C (compound 0.00316 µM) is 99.2% and 123%. The viability, T/C (compound 0.01 µM) is 85.2% and 96.2%. Further, the viability, T/C (compound 0.0316 µM) is 79.4% and 92.5%. In addition, the viability, T/C (compound 0.1 µM) was 55.2% and 50%. For the same compound, the viability, T/C (compound 0.316 µM) was 50.4% and 57.6%. Besides, the viability, T/C (compound 1 µM) is 62.8% and 49.6%.

Consider `CCc1c2c(nc3ccc(O)cc13)-c1cc3c(c(=O)n1C2)COC(=O)[C@]3(O)CC`, for which the IC50 was 6.21 nM and 6.32 nM. The viability, T/C (compound 0.00316 µM) is 94.3% and 93.4%. Also, the viability, T/C (compound 0.01 µM) was 16.8% and 20.4%. Besides, the viability, T/C (compound 0.0316 µM) is 15.4% and 10.1%. Under “compound 0.1 µM”, the viability, T/C was 5.45% and 6.24%. Besides, for the setting “compound 0.316 µM”, the viability, T/C was 3.48% and 3.36%. The viability, T/C (compound 1 µM) is 1.87% and 2.42%.

Take `COC1C=CCC(C)C(C)S(=O)(=O)NC(=O)c2ccc3c(c2)N(CC2CCC21)CC1(CCCc2cc(Cl)ccc21)CO3` (stereo not drawn): the IC50 is 6060 nM and 8070 nM. Moreover, the viability, T/C (compound 0.0316 µM) is 96% and 134%. The viability, T/C (compound 0.1 µM) is 105% and 90.2%. Besides, the viability, T/C (compound 0.316 µM) is 111% and 128%. Further, the viability, T/C (compound 1 µM) is 103% and 137%. Moreover, the viability, T/C (compound 3.16 µM) was 119% and 191%. In addition, the viability, T/C (compound 10 µM) is 6.05% and 30.3%.

For `COc1c(OCCCN2CCOCC2)ccc2c3n(c(=NC(=O)c4cnc(N)nc4)nc12)CCN3`, the IC50 was 14.1 nM and 12.1 nM. Besides, for the setting “compound 0.00316 µM”, the viability, T/C was 86% and 84.6%. The viability, T/C (compound 0.01 µM) was 55.7% and 52.6%. In addition, the viability, T/C (compound 0.0316 µM) is 35.4% and 31.9%. Under “compound 0.1 µM”, the viability, T/C was 12.5% and 11%. The viability, T/C (compound 0.316 µM) was 4.09% and 3.82%. The viability, T/C (compound 1 µM) is 2.57% and 1.98%.

On to `Cn1ncnc1[C@H]1c2n[nH]c(=O)c3cc(F)cc(c23)N[C@@H]1c1ccc(F)cc1`, for which the concentration for half-maximal inhibition (IC50) was greater than 100 nM. Moreover, the viability, T/C (compound 0.000316 µM) was 105% and 134%. For the setting “compound 0.001 µM”, the viability, T/C is 97.5% and 96.9%. Under “compound 0.00316 µM”, the viability, T/C was 110% and 130%. The viability, T/C (compound 0.01 µM) is 113% and 102%. In addition, the viability, T/C (compound 0.0316 µM) is 121% and 158%. Besides, the viability, T/C (compound 0.1 µM) is 110% and 141%.

`NC(=O)C(=Cn1cnc(-c2cc(C(F)(F)F)cc(C(F)(F)F)c2)n1)c1cncnc1`: the half-inhibitory concentration (IC50) is 71.7 nM and 72.3 nM. Besides, the viability, T/C (compound 0.00949 µM) is 133% and 162%. The viability, T/C (compound 0.03 µM) is 110% and 130%. For the setting “compound 0.0949 µM”, the viability, T/C is 30.4% and 25.3%. Besides, the viability, T/C (compound 0.3 µM) is 11.7% and 9.71%. Further, the viability, T/C (compound 0.949 µM) was 10.5% and 7.35%. In addition, the viability, T/C (compound 3 µM) was 4.97% and 5%.

For `Nc1ccccc1NC(=O)c1ccc(CNC(=O)OCc2cccnc2)cc1`, the half-inhibitory concentration (IC50) was 1360 nM and 1140 nM. Further, the viability, T/C (compound 0.0316 µM) is 81.5% and 97.5%. Besides, the viability, T/C (compound 0.1 µM) is 72.8% and 73.2%. The viability, T/C (compound 0.316 µM) is 75.6% and 75%. The viability, T/C (compound 1 µM) is 60.6% and 54.4%. Moreover, the viability, T/C (compound 3.16 µM) was 21.2% and 28.1%. Also, the viability, T/C (compound 10 µM) was 2.46% and 1.54%.
